pKi: −log10 of the molar value. Some results are limits rather than exact numbers.

For the experiment, the target named is full-length ATR (Homo sapiens (Human), UniProt Q13535). The experiment is described as follows: ATR Inhibition Assay (radioactive-phosphate incorporation). In kind it is biochemical. As to conditions: read-out: ATR Ki. The essentials: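 Ki(app) was derived by non-linear regression of background-corrected initial rates of 33P incorporation into an 800 μM target peptide, read by phosphocellulose filter scintillation counting. Reaction conditions: 5 nM full-length ATR, 10 μM [γ-33P]ATP, pH 7.5 Tris buffer with MgCl2 and DTT, 25 °C, 10-min preincubation, 24 h run.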
Chain of full-length ATR (Q13535 whole entry): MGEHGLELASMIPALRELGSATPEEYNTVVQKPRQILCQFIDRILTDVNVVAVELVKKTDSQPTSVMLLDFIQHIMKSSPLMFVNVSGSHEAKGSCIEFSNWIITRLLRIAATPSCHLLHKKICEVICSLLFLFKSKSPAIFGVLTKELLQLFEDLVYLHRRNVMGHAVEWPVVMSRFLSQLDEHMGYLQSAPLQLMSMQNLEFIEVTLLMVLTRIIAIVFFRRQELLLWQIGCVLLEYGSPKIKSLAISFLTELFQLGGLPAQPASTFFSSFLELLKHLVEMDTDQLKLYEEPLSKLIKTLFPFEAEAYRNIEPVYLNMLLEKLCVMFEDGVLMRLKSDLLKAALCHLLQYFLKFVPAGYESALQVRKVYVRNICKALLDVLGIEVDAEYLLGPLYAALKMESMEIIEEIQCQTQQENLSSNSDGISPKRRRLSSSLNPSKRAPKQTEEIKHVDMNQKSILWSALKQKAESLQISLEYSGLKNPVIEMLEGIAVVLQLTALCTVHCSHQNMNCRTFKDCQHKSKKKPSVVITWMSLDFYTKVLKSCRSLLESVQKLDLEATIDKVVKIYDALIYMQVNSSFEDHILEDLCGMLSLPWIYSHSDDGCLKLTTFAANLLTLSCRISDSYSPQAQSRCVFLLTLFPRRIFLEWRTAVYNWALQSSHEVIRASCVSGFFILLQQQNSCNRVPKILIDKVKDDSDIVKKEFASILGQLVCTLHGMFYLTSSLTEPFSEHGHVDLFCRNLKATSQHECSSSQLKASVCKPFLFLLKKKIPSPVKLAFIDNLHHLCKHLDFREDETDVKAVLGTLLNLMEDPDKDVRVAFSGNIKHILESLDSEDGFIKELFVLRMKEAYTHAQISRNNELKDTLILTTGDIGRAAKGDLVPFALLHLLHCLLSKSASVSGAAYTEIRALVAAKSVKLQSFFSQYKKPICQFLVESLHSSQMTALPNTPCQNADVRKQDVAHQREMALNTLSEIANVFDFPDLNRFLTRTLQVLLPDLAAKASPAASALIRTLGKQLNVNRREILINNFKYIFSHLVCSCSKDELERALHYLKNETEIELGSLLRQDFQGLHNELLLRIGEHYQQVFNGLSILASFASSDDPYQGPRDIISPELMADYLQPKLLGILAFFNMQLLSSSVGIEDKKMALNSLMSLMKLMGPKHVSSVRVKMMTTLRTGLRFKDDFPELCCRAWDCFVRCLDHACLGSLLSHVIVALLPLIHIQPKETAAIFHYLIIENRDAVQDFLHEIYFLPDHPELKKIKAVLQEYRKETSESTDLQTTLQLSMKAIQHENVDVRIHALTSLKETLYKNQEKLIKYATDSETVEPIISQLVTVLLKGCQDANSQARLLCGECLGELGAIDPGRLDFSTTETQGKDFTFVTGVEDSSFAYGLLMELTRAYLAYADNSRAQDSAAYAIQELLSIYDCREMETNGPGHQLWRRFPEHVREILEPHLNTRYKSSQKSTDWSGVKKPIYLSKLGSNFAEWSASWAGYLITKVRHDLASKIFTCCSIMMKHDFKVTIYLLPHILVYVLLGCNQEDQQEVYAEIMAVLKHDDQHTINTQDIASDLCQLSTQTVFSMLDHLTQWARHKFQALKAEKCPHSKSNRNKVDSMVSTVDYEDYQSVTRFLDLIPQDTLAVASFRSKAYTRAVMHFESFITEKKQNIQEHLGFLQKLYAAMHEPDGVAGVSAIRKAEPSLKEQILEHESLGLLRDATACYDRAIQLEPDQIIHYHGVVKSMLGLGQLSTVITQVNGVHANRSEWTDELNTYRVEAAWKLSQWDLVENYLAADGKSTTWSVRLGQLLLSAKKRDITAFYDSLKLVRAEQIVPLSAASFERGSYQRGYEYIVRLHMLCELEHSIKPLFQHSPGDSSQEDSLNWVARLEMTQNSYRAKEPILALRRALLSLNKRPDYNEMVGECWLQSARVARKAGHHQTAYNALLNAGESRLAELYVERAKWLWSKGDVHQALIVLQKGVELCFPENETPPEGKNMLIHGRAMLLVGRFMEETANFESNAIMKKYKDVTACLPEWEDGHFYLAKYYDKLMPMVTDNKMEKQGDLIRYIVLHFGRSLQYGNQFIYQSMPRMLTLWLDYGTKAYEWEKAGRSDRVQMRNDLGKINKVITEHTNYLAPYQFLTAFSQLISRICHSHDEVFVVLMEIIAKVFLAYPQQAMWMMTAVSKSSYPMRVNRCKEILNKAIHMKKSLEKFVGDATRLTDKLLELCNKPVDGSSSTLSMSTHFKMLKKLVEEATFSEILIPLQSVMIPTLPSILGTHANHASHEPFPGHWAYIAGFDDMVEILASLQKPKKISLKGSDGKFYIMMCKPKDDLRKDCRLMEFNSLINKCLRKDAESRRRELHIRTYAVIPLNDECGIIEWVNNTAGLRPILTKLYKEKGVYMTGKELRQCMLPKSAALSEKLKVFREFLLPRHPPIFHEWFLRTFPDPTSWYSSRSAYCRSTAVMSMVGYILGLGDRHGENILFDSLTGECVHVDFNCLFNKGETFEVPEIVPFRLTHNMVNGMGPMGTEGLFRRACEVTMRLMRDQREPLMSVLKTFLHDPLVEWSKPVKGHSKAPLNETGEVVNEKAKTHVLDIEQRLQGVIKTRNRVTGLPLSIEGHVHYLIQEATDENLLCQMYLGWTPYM
Broadly, the pKi is the Ki on a negative log10 scale, so that one unit is a factor of ten. Consider `Nc1ncc(-c2ccc(NCCN3CCOCC3)nc2)nc1-c1nnc(-c2ccccc2)o1` [IA-72, 5-[6-(2-morpholinoethylamino)-3-pyridyl]-3-(5-phenyl-1,3,4-oxadiazol-2-yl)pyrazin-2-amine], for which the pKi was 5.30 to 7.00.

Consider `CCC1CN(C(=O)c2ccc(-c3cnc(N)c(-c4nnc(-c5ccccc5)o4)n3)cc2)CCN1` (stereo not shown) [IA-18], for which the pKi is not below 8.00.

As for `Cc1ccsc1-c1nnc(-c2nc(-c3ccccc3[S+](C)[O-])cnc2N)o1` (stereo not shown) [IA-179, 5-(2-methylsulfinylphenyl)-3-[5-(3-methyl-2-thienyl)-1,3,4-oxadiazol-2-yl]pyrazin-2-amine], the pKi is not below 8.00.

As to `Cc1ccsc1-c1nnc(-c2nc(-c3ccc(C(=O)N(C)C)cc3)cnc2N)o1` [IA-167, 4-[5-amino-6-[5-(3-methyl-2-thienyl)-1,3,4-oxadiazol-2-yl]pyrazin-2-yl]-N,N-dimethyl-benzamide], the negative logarithm of the Ki (pKi) is not below 8.00.

For the compound `Nc1ncc(-c2ccc(C(=O)N3CCCC3)cc2)nc1C(=O)Nc1ccccc1` [Compound I-70, 3-amino-N-phenyl-6-(4-(pyrrolidine-1-carbonyl)phenyl)pyrazine-2-carboxamide], the pKi was 7.00 to 8.00.

Turning to `CN(C)C(=O)c1ccc(-c2cnc(N)c(-c3nnc(Nc4cccc(Cl)c4)o3)n2)cc1` [IA-43], the pKi was 7.00 to 8.00.

As for `Nc1ncc(-c2ccc(C(=O)N3CCNCC3)cc2)nc1-c1nnc(-c2ccccc2)o1` [IA-12], the pKi was 7.00 to 8.00.

`CN(C)C(=O)c1ccc(-c2cnc(N)c(-c3nnc(-c4cccc(CO)c4)o3)n2)cc1` [IA-198, 4-[5-amino-6-[5-[3-(hydroxymethyl)phenyl]-1,3,4-oxadiazol-2-yl]pyrazin-2-yl]-N,N-dimethyl-benzamide]: the pKi is 7.00 to 8.00.

Regarding `CNCc1ccc(-c2nnc(-c3nc(-c4ccc(S(C)(=O)=O)cc4)cnc3N)o2)cc1` [IA-288, 3-[5-[4-(methylaminomethyl)phenyl]-1,3,4-oxadiazol-2-yl]-5-(4-methylsulfonylphenyl)pyrazin-2-amine], the pKi is not below 8.00.

Consider `CNCc1ccc(-c2nnc(-c3nc(-c4ccc(S(=O)(=O)C(C)C)c(C#N)c4)cnc3N)o2)cc1` [IA-295, 5-[5-amino-6-[5-[4-(methylaminomethyl)phenyl]-1,3,4-oxadiazol-2-yl]pyrazin-2-yl]-2-isopropylsulfonyl-benzonitrile], for which the pKi was not below 8.00.

Take `CNCc1ccc(-c2nnc(-c3nc(-c4ccc(S(=O)(=O)C5CCOCC5)cc4)cnc3N)o2)cc1` [IA-323, 3-[5-[4-(methylaminomethyl)phenyl]-1,3,4-oxadiazol-2-yl]-5-(4-tetrahydropyran-4-ylsulfonylphenyl)pyrazin-2-amine]: the pKi was not below 8.00.

On to `CNCc1ccc(-c2nnc(-c3nc(-c4ccc(S(=O)(=O)C(C)C)c(F)c4)cnc3N)o2)cc1` [IA-314, 5-(3-fluoro-4-isopropylsulfonyl-phenyl)-3-[5-[4-(methylaminomethyl)phenyl]-1,3,4-oxadiazol-2-yl]pyrazin-2-amine], for which the pKi was not below 8.00.

Take `Nc1ncc(-c2ccc(C(=O)N3CCCNCC3)cc2)nc1-c1nnc(-c2ccccc2)s1` [IA-68, (4-(5-amino-6-(5-phenyl-1,3,4-thiadiazol-2-yl)pyrazin-2-yl)phenyl)(1,4-diazepan-1-yl)methanone]: the pKi was not below 8.00.

Turning to `Nc1ncc(-c2ccccc2CCO)nc1-c1nnc(-c2ccccc2)o1` [IA-137, 2-[2-[5-amino-6-(5-phenyl-1,3,4-oxadiazol-2-yl)pyrazin-2-yl]phenyl]ethanol], the pKi was 7.00 to 8.00.

With `CNCc1ccc(NC(=O)c2nc(-c3ccc(S(C)(=O)=O)cc3)cnc2N)cc1` [VII-10], the pKi was 5.30 to 7.00.

`CC(C)S(=O)(=O)c1ccc(-c2cnc(N)c(-c3nnc(C4=CCNCC4)o3)n2)cc1` [IA-232, 5-(4-isopropylsulfonylphenyl)-3-[5-(1,2,3,6-tetrahydropyridin-4-yl)-1,3,4-oxadiazol-2-yl]pyrazin-2-amine]: the pKi was 7.00 to 8.00.

As to `CN(C)C(=O)c1ccc(-c2cnc(N)c(-c3nnc(-c4ccccc4C(F)(F)F)o3)n2)cc1` [IA-233, 4-[5-amino-6-[5-[2-(trifluoromethyl)phenyl]-1,3,4-oxadiazol-2-yl]pyrazin-2-yl]-N,N-dimethyl-benzamide], the pKi is 7.00 to 8.00.

For `CC(C)S(=O)(=O)c1ccc(-c2cnc(N)c(-c3nnc(N4CCC(N)CC4)o3)n2)cc1` [IA-109, 3-[5-(4-amino-1-piperidyl)-1,3,4-oxadiazol-2-yl]-5-(4-isopropylsulfonylphenyl)pyrazin-2-amine], the pKi was 5.30 to 7.00.

As for `CC[S+]([O-])c1ccccc1-c1cnc(N)c(-c2nnc(-c3ccccc3)o2)n1` (stereo not shown) [IA-256, 5-(2-ethylsulfinylphenyl)-3-(5-phenyl-1,3,4-oxadiazol-2-yl)pyrazin-2-amine], the pKi is not below 8.00.

Take `CC(C)S(=O)(=O)c1ccc(-c2cnc(N)c(-c3nnc(-c4ccc(CNC[C@H](C)O)cc4F)o3)n2)cc1` [IA-334, (S)-1-(4-(5-(3-amino-6-(4-(isopropylsulfonyl)phenyl)pyrazin-2-yl)-1,3,4-oxadiazol-2-yl)-3-fluorobenzylamino)propan-2-ol]: the pKi was not below 8.00.

Consider `CN(C)C(=O)c1ccc(-c2cnc(N)c(-c3nc4ccccc4[nH]3)n2)cc1` [Compound I-124, 4-(5-amino-6-(1H-benzo[d]imidazol-2-yl)pyrazin-2-yl)-N,N-dimethylbenzamide], for which the pKi was 7.00 to 8.00.

Consider `CNCc1ccc(-c2nnc(-c3nc(-c4ccc(S(=O)(=O)C(C)C)cc4)cnc3N)o2)cc1O` [IA-320, 5-[5-[3-amino-6-(4-isopropylsulfonylphenyl)pyrazin-2-yl]-1,3,4-oxadiazol-2-yl]-2-(methylaminomethyl)phenol], for which the pKi was not below 8.00.

For the compound `N#Cc1cnccc1-c1cnc(N)c(C(=O)Nc2nc3ccccc3[nH]2)n1` [Compound V-3], the negative logarithm of the Ki (pKi) was not below 8.00.

On to `Cc1cc(NC(=O)c2nc(-c3ccc(S(C)(=O)=O)cc3)cnc2N)ccn1` [VII-2], for which the pKi was 7.00 to 8.00.

Regarding `CN(C)C(=O)c1ccc(-c2cnc(N)c(-c3nnc(Nc4ccccc4C#N)s3)n2)cc1` [IVA-3, 4-[5-amino-6-[5-(2-cyanoanilino)-1,3,4-thiadiazol-2-yl]pyrazin-2-yl]-N,N-dimethyl-benzamide], the pKi is 5.30 to 7.00.

In the case of `Cc1cccc(-c2nnc(-c3nc(-c4cccnc4)cnc3N)[nH]2)c1` [Compound I-141, 5-(pyridin-3-yl)-3-(5-m-tolyl-4H-1,2,4-triazol-3-yl)pyrazin-2-amine], the pKi is 7.00 to 8.00.

Turning to `Cc1ccc2nc(-c3nc(-c4ccc(C(=O)N5CCN(C)CC5)cc4)cnc3N)[nH]c2c1` [III-4, (4-(5-amino-6-(6-methyl-1H-benzo[d]imidazol-2-yl)pyrazin-2-yl)phenyl)(4-methylpiperazin-1-yl)methanone], the pKi is 7.00 to 8.00.

In the case of `CC(C)S(=O)(=O)c1ccc(-c2cnc(N)c(-c3nnc(-c4ccc(CNCCF)cc4F)o3)n2)cc1` [IA-340, 3-[5-[2-fluoro-4-[(2-fluoroethylamino)methyl]phenyl]-1,3,4-oxadiazol-2-yl]-5-(4-isopropylsulfonylphenyl)pyrazin-2-amine], the pKi was not below 8.00.

With `CNCc1ccc(-c2nnc(-c3nc(-c4ccc(S(=O)(=O)N5CCC5)cc4)cnc3N)o2)cc1` [IA-297, 5-[4-(azetidin-1-ylsulfonyl)phenyl]-3-[5-[4-(methylaminomethyl)phenyl]-1,3,4-oxadiazol-2-yl]pyrazin-2-amine], the negative logarithm of the Ki (pKi) is not below 8.00.

For `CN(C)C(=O)c1ccc(-c2cnc(N)c(-c3nnc(-c4cccc([N+](=O)[O-])c4)o3)n2)cc1` [IA-286, 4-(5-amino-6-(5-(3-nitrophenyl)-1,3,4-oxadiazol-2-yl)pyrazin-2-yl)-N,N-dimethylbenzamide], the negative logarithm of the Ki (pKi) is 5.30 to 7.00.

For `Nc1ncc(-c2cc(F)c(C(=O)N3CCCNCC3)c(F)c2)nc1-c1nnc(-c2ccccc2)o1` [IA-38], the pKi was 7.00 to 8.00.

Turning to `CC(C)S(=O)(=O)c1ccc(-c2cnc(N)c(-c3nnc(C(=O)NCC4CCCNC4)o3)n2)cc1` (stereo not shown) [IA-255, 5-[3-amino-6-(4-isopropylsulfonylphenyl)pyrazin-2-yl]-N-(3-piperidylmethyl)-1,3,4-oxadiazole-2-carboxamide], the pKi was 5.30 to 7.00.

For the compound `CNCc1ccc(NC(=O)c2nc(-c3ccc(S(=O)(=O)C(C)C)cc3)cnc2N)cc1` [VII-11], the pKi is 7.00 to 8.00.

For `COc1cccc(-c2nnc(-c3nc(-c4ccc(C(=O)N(C)C)cc4)cnc3N)o2)c1` [IA-195, 4-[5-amino-6-[5-(3-methoxyphenyl)-1,3,4-oxadiazol-2-yl]pyrazin-2-yl]-N,N-dimethyl-benzamide], the negative logarithm of the Ki (pKi) was 7.00 to 8.00.

On to `CNc1nnc(-c2nc(-c3ccc(C(=O)N(C)C)cc3)cnc2N)o1` [IA-33], for which the pKi was 5.30 to 7.00.

As for `Nc1ncc(-c2ccsc2)nc1-c1nnc(-c2ccccc2)o1` [IA-104, 3-(5-phenyl-1,3,4-oxadiazol-2-yl)-5-(3-thienyl)pyrazin-2-amine], the pKi is 7.00 to 8.00.

As for `CC(C)S(=O)(=O)c1ccc(-c2cnc(N)c(-c3nnc(-c4ccc(C(=N)N)cc4)o3)n2)cc1` [IA-70, 4-[5-[3-amino-6-(4-isopropylsulfonylphenyl)pyrazin-2-yl]-1,3,4-oxadiazol-2-yl]benzamidine], the pKi was not below 8.00.

As for `CC(N)c1cccc(-c2nnc(-c3nc(-c4ccc(S(=O)(=O)C(C)C)cc4)cnc3N)o2)c1` (stereo not shown) [IA-282, 3-[5-[3-(1-aminoethyl)phenyl]-1,3,4-oxadiazol-2-yl]-5-(4-isopropylsulfonylphenyl)pyrazin-2-amine], the pKi was not below 8.00.

For `CNCc1ccc(-c2nnc(-c3nc(-c4ccc(S(=O)(=O)C(C)CCO)cc4)cnc3N)o2)c(F)c1` (stereo not shown) [IA-342, 3-[4-[5-amino-6-[5-[2-fluoro-4-(methylaminomethyl)phenyl]-1,3,4-oxadiazol-2-yl]pyrazin-2-yl]phenyl]sulfonylbutan-1-ol], the pKi was not below 8.00.

Consider `CS(=O)(=O)c1ccc(-c2cnc(N)c(C(=O)Nc3nc4ccccc4[nH]3)n2)cc1` [Compound V-11], for which the pKi is not below 8.00.

For the origin of these results see patent publication US10479784B2, “Substituted pyrazin-2-amines as inhibitors of ATR kinase” (Vertex Pharmaceuticals Incorporated, priority 2008, dated 2019).
